Assay results taken from US12018021B2 (UCB Biopharma SRL, priority 2018, dated 2024).

Biological target: IgE-Tb / FcεRIα-Y131A-AF488 (Homo sapiens, UniProt P01854)
Assay: IgE-Tb / FcεRIα-Y131A-AF488 FRET assay (protocol for examples 1 to 233)
Assay type: binding
Settings: examples 1 to 233: 5 nM IgE-Tb, 25 nM FcεRIα-Y131A-AF488, incubated 2 hours at room temperature; read-out: Y131A FRET IC50 range
Summary of the method: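 Compounds (top final concentration usually 10 μM, 3-fold, 10 points, 2% DMSO) incubated 2 h at room temperature with IgE-Tb (5 nM) and FcεRIα-Y131A-AF488 (25 nM). Background from 200 nM unlabelled receptor subtracted; FRET ratio 520/495 nm after 330 nm excitation gave percent inhibition, fitted four-parameter for IC50.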

Sequence of IgE-Tb / FcεRIα-Y131A-AF488 (P01854 1-427 limits assumed, stated change not applied): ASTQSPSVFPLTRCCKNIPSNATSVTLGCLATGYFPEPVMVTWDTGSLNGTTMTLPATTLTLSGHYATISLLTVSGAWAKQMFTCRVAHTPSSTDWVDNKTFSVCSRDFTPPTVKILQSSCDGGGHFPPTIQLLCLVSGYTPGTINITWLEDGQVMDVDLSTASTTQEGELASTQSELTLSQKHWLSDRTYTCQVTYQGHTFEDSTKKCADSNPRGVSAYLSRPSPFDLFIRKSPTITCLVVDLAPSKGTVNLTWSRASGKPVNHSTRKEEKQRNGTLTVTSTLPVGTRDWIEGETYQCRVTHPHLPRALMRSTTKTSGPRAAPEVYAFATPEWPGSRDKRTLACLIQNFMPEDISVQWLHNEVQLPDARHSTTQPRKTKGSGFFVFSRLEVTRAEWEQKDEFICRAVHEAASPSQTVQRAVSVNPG

**Q.** `CCNC(=NC#N)N(C)[C@H]1CCc2sc(NC(=O)C3CC3)c(C(=O)NCC3CC3)c2C1` [Example 136, (5S)-5-[(N′-cyano-N-ethyl-carbamimidoyl)-methyl-amino]-2-(cyclopropanecarbonylamino)-N-(cyclopropylmethyl)-4,5,6,7-tetrahydrobenzothiophene-3-carboxamide] was tested. Which IC50 did it give?
**A.** < 1 µM

**Q.** How did the IC50 turn out when `Cc1ccc(Nc2c(NC3CCc4sc(NC(=O)C5CC5)c(C(=O)NCC5CC5)c4C3)c(=O)c2=O)cc1` (stereo not shown) [Example 137, 2-(Cyclopropanecarbonylamino)-N-(cyclopropylmethyl)-5-[[2-(4-methylanilino)-3,4-dioxo-cyclobuten-1-yl]amino]-4,5,6,7-tetrahydrobenzothiophene-3-carboxamide] was run?
**A.** < 1 µM

**Q.** How did the IC50 turn out when `O=C(NCC1CC1)c1c(NC(=O)C2CC2)sc2c1C[C@@H](n1cnnc1Nc1ccccn1)CC2` [Example 138, (5S)-2-(Cyclopropanecarbonylamino)-N-(cyclopropylmethyl)-5-[3-(2-pyridylamino)-1,2,4-triazo-4-yl]-4,5,6,7-tetrahydrobenzothiophene-3-carboxamide] was run?
**A.** < 1 µM

**Q.** Which IC50 does the source give for `CC(=O)Nc1nccn1[C@H]1CCc2sc(NC(=O)C3CC3)c(C(=O)NCC3CC3)c2C1` [Example 139, (5S)-5-(2-Acetamidoimidazol-1-yl)-2-(cyclopropanecarbonylamino)-N-(cyclopropylmethyl)-4,5,6,7-tetrahydrobenzothiophene-3-carboxamide] here?
**A.** < 1 µM

**Q.** With `O=C(NCC1CC1)c1c(NC(=O)C2CC2)sc2c1CC(n1nncc1Nc1cccnc1)CC2` (stereo not shown) [Example 141, 2-(Cyclopropanecarbonylamino)-N-(cyclopropylmethyl)-5-[5-(3-pyridylamino)triazo-1-yl]-4,5,6,7-tetrahydrobenzothiophene-3-carboxamide] as the compound, how does the IC50 read?
**A.** < 1 µM

**Q.** With `CCNC(=S)NC1CCc2sc(NC(=O)C3CC3)c(C(=O)NCC3CC3)c2C1` (stereo not shown) [Example 142, 2-(Cyclopropanecarbonylamino)-N-(cyclopropylmethyl)-5-(ethylcarbamothioylamino)-4,5,6,7-tetrahydrobenzothiophene-3-carboxamide] as the compound, how does the IC50 read?
**A.** < 1 µM

**Q.** With `O=C(NCC1CC1)c1c(NC(=O)C2CC2)sc2c1C[C@@H](n1cnnc1N[C@H]1CCOC1)CC2` [Example 143, (5S)-2-(cyclopropanecarbonylamino)-N-(cyclopropylmethyl)-5-[3-[[(3S)-tetrahydrofuran-3-yl]amino]-1,2,4-triazol-4-yl]-4,5,6,7-tetrahydrobenzothiophene-3-carboxamide] as the compound, how does the IC50 read?
**A.** < 1 µM

**Q.** For `CCNC(=NC#N)NC1CCc2sc(NC(=O)C3CC3)c(C(=O)NCC3CC3)c2C1` (stereo not shown) [Example 144, 5-[[N′-Cyano-N-ethyl-carbamimidoyl]amino]-2-(cyclopropanecarbonylamino)-N-(cyclopropylmethyl)-4,5,6,7-tetrahydrobenzothiophene-3-carboxamide], which IC50 is on record?
**A.** < 1 µM

**Q.** `CCN/C(=N\[N+](=O)[O-])N[C@H]1CCc2sc(NC(=O)C3CC3)c(C(=O)NCC3CC3)c2C1` [Example 145, (5S)-2-(Cyclopropanecarbonylamino)-N-(cyclopropylmethyl)-5-[[(E)-N-ethyl-N′-nitro-carbamimidoyl]amino]-4,5,6,7-tetrahydrobenzothiophene-3-carboxamide] was tested. Which IC50 did it give?
**A.** < 1 µM

**Q.** For `CCN/C(=N\[N+](=O)[O-])N[C@@H]1CCc2sc(NC(=O)C3CC3)c(C(=O)NCC3CC3)c2C1` [Example 146, (5R)-2-(Cyclopropanecarbonylamino)-N-(cyclopropylmethyl)-5-[[(E)-N-ethyl-N′-nitro-carbamimidoyl]amino]-4,5,6,7-tetrahydrobenzothiophene-3-carboxamide], which IC50 is on record?
**A.** 10 to 50 µM

**Q.** `CCNc1nccn1[C@H]1CCc2sc(NC(=O)C3CC3)c(C(=O)NCC3CC3)c2C1` [Example 147, (5S)-2-(Cyclopropanecarbonylamino)-N-(cyclopropylmethyl)-5-[2-(ethylamino)imidazol-1-yl]-4,5,6,7-tetrahydrobenzothiophene-3-carboxamide] was tested. Which IC50 did it give?
**A.** < 1 µM

**Q.** Which IC50 does the source give for `Cc1noc(C)c1Nc1nncn1[C@H]1CCc2sc(NC(=O)C3CC3)c(C(=O)NCC3CC3)c2C1` [Example 148, (5S)-2-(Cyclopropanecarbonylamino)-N-(cyclopropylmethyl)-5-[3-[(3,5-dimethylisoxazol-4-yl)amino]-1,2,4-triazol-4-yl]-4,5,6,7-tetrahydrobenzothiophene-3-carboxamide] here?
**A.** < 1 µM

**Q.** `CCOC(=O)N=C(Nc1ccc(C)cc1)NC1CCc2sc(NC(=O)C3CC3)c(C(=O)NCC3CC3)c2C1` (stereo not shown) [Example 149, ethyl N-[[[2-(cyclopropanecarbonylamino)-3-(cyclopropylmethylcarbamoyl)-4,5,6,7-tetrahydrobenzothiophen-5-yl]amino]-(4-methylanilino)methylene]carbamate] was tested. Which IC50 did it give?
**A.** < 1 µM

**Q.** With `Cc1ncccc1Nc1nccn1[C@H]1CCc2sc(NC(=O)C3CC3)c(C(=O)NCC3CC3)c2C1` [Example 150, (5S)-2-(Cyclopropanecarbonylamino)-N-(cyclopropylmethyl)-5-[2-[(2-methyl-3-pyridyl)amino]imidazol-1-yl]-4,5,6,7-tetrahydrobenzothiophene-3-carboxamide] as the compound, how does the IC50 read?
**A.** < 1 µM

**Q.** With `CCNC(=C[N+](=O)[O-])NC1CCc2sc(NC(=O)C3CC3)c(C(=O)NCC3CC3)c2C1` (stereo not shown) [Example 151, 2-(cyclopropanecarbonylamino)-N-(cyclopropylmethyl)-5-[[1-(ethylamino)-2-nitro-vinyl]amino]-4,5,6,7-tetrahydrobenzothiophene-3-carboxamide] as the compound, how does the IC50 read?
**A.** 1 to 10 µM

**Q.** With `Cc1cc(=O)[nH]c(NC2CCc3sc(NC(=O)C4CC4)c(C(=O)NCC4CC4)c3C2)n1` (stereo not shown) [Example 152, 2-(Cyclopropanecarbonylamino)-N-(cyclopropylmethyl)-5-[(4-methyl-6-oxo-1H-pyrimidin-2-yl)amino]-4,5,6,7-tetrahydrobenzothiophene-3-carboxamide] as the compound, how does the IC50 read?
**A.** < 1 µM

**Q.** Which IC50 does the source give for `CNC(=O)c1ncn([C@H]2CCc3sc(NC(=O)C4CC4)c(C(=O)NCC4CC4)c3C2)c1N` [Example 153, 5-amino-1-[(5S)-2-cyclopropaneamido-3-[(cyclopropylmethyl)carbamoyl]-4,5,6,7-tetrahydro-1-benzothiophen-5-yl]-N-methyl-1H-imidazole-4-carboxamide] here?
**A.** < 1 µM

**Q.** With `NC(=O)c1ncn([C@H]2CCc3sc(NC(=O)C4CC4)c(C(=O)NCC4CC4)c3C2)c1N` [Example 154, 5-amino-1-[(5S)-2-cyclopropaneamido-3-[(cyclopropylmethyl)carbamoyl]-4,5,6,7-tetrahydro-1-benzothiophen-5-yl]-1H-imidazole-4-carboxamide] as the compound, how does the IC50 read?
**A.** < 1 µM

**Q.** How did the IC50 turn out when `O=C(NCC1CC1)c1c(NC(=O)C2CC2)sc2c1CC(n1ccnc1Nc1ccccc1)CC2` (stereo not shown) [Example 155, 5-(2-Anilinoimidazol-1-yl)-2-(cyclopropanecarbonylamino)-N-(cyclopropylmethyl)-4,5,6,7-tetrahydrobenzothiophene-3-carboxamide] was run?
**A.** < 1 µM

**Q.** Which IC50 does the source give for `CCNC(=NC#N)N[C@H]1CCc2sc(NC(=O)C3CC3)c(C(=O)NCC3CC3)c2C1` [Example 156, (5S)-5-[[N′-cyano-N-ethyl-carbamimidoyl]amino]-2-(cyclopropanecarbonylamino)-N-(cyclopropylmethyl)-4,5,6,7-tetrahydrobenzothiophene-3-carboxamide] here?
**A.** < 1 µM

**Q.** For `CCNC(=O)NC1CCc2sc(NC(=O)C3CC3)c(C(=O)NCC3CC3)c2C1` (stereo not shown) [Example 157, 2-(Cyclopropanecarbonylamino)-N-(cyclopropylmethyl)-5-(ethylcarbamoylamino)-4,5,6,7-tetrahydrobenzothiophene-3-carboxamide], which IC50 is on record?
**A.** 1 to 10 µM

**Q.** How did the IC50 turn out when `O=C(NCC1CC1)c1c(NC(=O)C2CC2)sc2c1CC(Nc1cc(=O)cc[nH]1)CC2` (stereo not shown) [Example 158, 2-(Cyclopropanecarbonylamino)-N-(cyclopropylmethyl)-5-[(4-oxo-1H-pyridin-2-yl)amino]-4,5,6,7-tetrahydrobenzothiophene-3-carboxamide] was run?
**A.** < 1 µM

**Q.** With `Cc1nnc(-c2ccc(N[C@H]3CCc4sc(NC(=O)C5CC5)c(C(=O)NCC5CC5)c4C3)cn2)o1` [Example 159, (5S)-2-(cyclopropanecarbonylamino)-N-(cyclopropylmethyl)-5-[[6-(5-methyl-1,3,4-oxadiazol-2-yl)-3-pyridyl]amino]-4,5,6,7-tetrahydrobenzothiophene-3-carboxamide] as the compound, how does the IC50 read?
**A.** < 1 µM

**Q.** With `CCNc1nnnn1C1CCc2sc(NC(=O)C3CC3)c(C(=O)NCC3CC3)c2C1` (stereo not shown) [Example 160, 2-(Cyclopropanecarbonylamino)-N-(cyclopropylmethyl)-5-[5-(ethylamino)tetrazol-1-yl]-4,5,6,7-tetrahydrobenzothiophene-3-carboxamide] as the compound, how does the IC50 read?
**A.** < 1 µM

**Q.** How did the IC50 turn out when `O=C(NCC1CC1)c1c(NC(=O)C2CC2)sc2c1CC(Nc1nc[nH]n1)CC2` (stereo not shown) [Example 161, 2-(Cyclopropanecarbonylamino)-N-(cyclopropylmethyl)-5-(1H-1,2,4-triazol-3-ylamino)-4,5,6,7-tetrahydrobenzothiophene-3-carboxamide] was run?
**A.** < 1 µM

**Q.** How did the IC50 turn out when `Cc1cc(Nc2nncn2[C@@H]2CCc3sc(NC(=O)C4CC4)c(C(=O)NCC4CC4)c3C2)n(C)n1` [Example 162, (5R)-2-(Cyclopropanecarbonylamino)-N-(cyclopropylmethyl)-5-[3-[(2,5-dimethylpyrazol-3-yl)amino]-1,2,4-triazol-4-yl]-4,5,6,7-tetrahydrobenzothiophene-3-carboxamide] was run?
**A.** < 1 µM

**Q.** Which IC50 does the source give for `Cn1cc(-n2cnnc2N[C@H]2CCc3sc(NC(=O)C4CC4)c(C(=O)NCC4CC4)c3C2)cn1` [Example 163, (5S)-2-(Cyclopropanecarbonylamino)-N-(cyclopropylmethyl)-5-[[4-(1-methylpyrazol-4-yl)-1,2,4-triazol-3-yl]amino]-4,5,6,7-tetrahydrobenzothiophene-3-carboxamide] here?
**A.** 1 to 10 µM

**Q.** Which IC50 does the source give for `CCOC(=O)c1cn([C@H]2CCc3sc(NC(=O)C4CC4)c(C(=O)NCC4CC4)c3C2)cn1` [Example 164, ethyl 1-[(5S)-2-cyclopropaneamido-3-[(cyclopropylmethyl)carbamoyl]-4,5,6,7-tetrahydro-1-benzothiophen-5-yl]-1H-imidazole-4-carboxylate] here?
**A.** < 1 µM
